These results are taken from patent publication US5677282A (Proscript, Inc., priority 1995, dated 1997).

SMILES strings stand for the structures.

What all share (format): biochemical
For one assay, the target named is 92 kD gelatinase (Homo sapiens, UniProt P14780). Briefly: Assay of 92 KD gelatinase inhibition activity. The settings on record: 92KD gelatinase 25 pM, H-150 buffer pH 7.4; read-out: Ki(app). The procedure:
H-150 buffer, pH 7.4, was prepared by CaCl2 H2 O (1.47 grams), NaCl (8.77 grams) and N-[2-hydroxyethyl]piperazine-N'-[2-ethanesulfonic acid](23.83 grams) to distilled and deionized water and then bring the final volume of the solution to 1 liter. A reaction mixture having a final volume of 500 μL was prepared with H-150 buffer, 200 μgrams of Pro-92KD gelatinase (Strongin et al., J. Biol. Chem., 268:14033 (1993); Goldberg, et al., J. Biol. Chem., 267:4583 (1992); Okada et al., J. Biol. Chem. 267:21712 (1992)), p-aminophenyl mercuric acetate (Sigma Chemical Co., St. Louis, Mo.) (1 mM) and Brij (dodexylpoly(oxyethyleneglycolether))(0,008% w/v). The reaction mixture wsa then incubated for 24 hours at 37° C.
The reaction mixture was applied to a NAP-5 column (G-25 SEPHADEX™, Pharmacia). Fractions containing 72KD gelatinase were identified using 12% polyacrylamide gel electrophoresis and concentrated to about 100-200 μliters by centrifigation (5000 g, 1 hour).
A solution containing H-150 buffer (2.0 mL), 92KD gelatinase (25 pM) and ethylphenolpoly(ethylene-glycolether)n (Boerhringer Mannheim) (4.0 μM) was prepared in a stirred cuvette. Coumarin peptide substrate (4 μL of a 5 mM solution in dimethyl sulfoxide) was added to the reaction mixture. The rate of hydrolysis was determined for about 100-200 seconds by measuring the fluorescence of the reaction at ex328 nanometers and […] using a Hitachi F-2000 Fluorescence Spectrophotometer.
(§1) 2 μL of a 10 mM inhibitor stock solution (in dimethyl sulfoxide) is added and the reduction in the rate of hydrolysis is determined. Additional 2 μL aliquots of the stock inhibitor solution is added until a 30% to 70% inhibition is observed. Ki is calculated on the assumption of simple competitive inhibition and that the substrate concentration is much less than Km.

The target of the next assay is stromelysin (Homo sapiens, UniProt P08254). Briefly: Assay of stromelysin inhibition activity (fluorogenic coumarin peptide substrate). The settings on record: trypsin-activated stromelysin 2 nM, H-150 buffer pH 7.4, room temperature; read-out: Ki(app). The procedure:
Stromelysin was first activated with trypsin. This was done by preparing a reaction mixture in H-150 (H-150 consists of 10 mM CaCl2, 150 mM NaCl and 100 mM HEPES at pH 7.4) containing a final concentration of 25 μg/mL trypsin and 2.2 μM of stromelysin (Marcy et al., Biochemistry,30:6476 (1991); Koklitis et al., Biochem. J., 376:217 (1991). The reaction was incubated for 30 minutes at 37° C. and then quenched by adding trypsin inhibitor agarose to the reaction mixture at a 20 fold excess with respect to trypsin.
The reaction mixture was centrifuged at 14,000 rpm (16,000 ×g) for 30 minutes using an Eppendorf Centrifuge 5415C. The supernant, which contains activated stromelysin, was concentrated with a Centricon 10 (5000 g, 1 hour). A sample was analyzed by Bradford total protein assay and 12% SDS polyacrylamide gel electrophoresis.
All steps of the stromelysin inhibition assay were performed at room temperature. Assay solutions were prepared for each inhibitor tested. Activated stromelysin was added to a stirred covelte to a final concentration of 2 nM in 2 mL of H-150 buffer. 4 μL 5 mM coumarin peptide substrate was dissolved in DMSO and the initial rate of hydrolysis was measured for 100-200 seconds.
Substrate hydrolysis was assessed by fluorescence using a slit width of 10:10, excitation at 328 nm and emission at 393 nm. Ki was calculated based on the assumption of simple competitive inhibition and a substrate concentration much less than Km. 2 μL of 10 mM inhibitor in DMSO was added and the reduction in hydrolysis rate measured. The addition of 2 μL of inhibitor was continued until a 30-70% inhibition was observed.

Assay [1] deals with human neutrophil collagenase (Homo sapiens, UniProt P22894). Description: Assay of human neutrophil collagenase inhibition activity. Conditions: human neutrophil collagenase 2 nM, H-150 buffer pH 7.4; read-out: Ki(app). The procedure:
H-150 buffer, pH 7.4, was prepared by adding CaCl2 H2 O (1.47 grams), NaCl (8.77 grams) and N-[2-hydroxyethyl]piperazine-N'-[2-ethanesulfonic acid] (23.83 grams) to distilled and deionized water and then bringing the final volume of the solution to 1 liter.
A reaction mixture with a final volume of 2.0 mL was prepared from H-150 buffer, human neutrophil collagenase (Schnierer, et al., Blochem. Biophys. Res. Comm., 191:319 (1993); Knight et al., Federation of Europena Biochemical Societies 296:263 (1992)) (2 nM). Coumarin peptide substrate (4 μL of a 5 mM solution in dimethyl sulfoxide) was added to the reaction mixture. The rate of hydrolysis was determined for about 100-200 seconds by measuring the fluorescence of the reaction at ex328 nanometers and […] using a Hitachi F-2000 Fluorescence Spectrophotometer.
as §1

The target of another assay is T1, 72 kD gelatinase (Homo sapiens, UniProt P08253).
T1 sequence (P08253 110-660): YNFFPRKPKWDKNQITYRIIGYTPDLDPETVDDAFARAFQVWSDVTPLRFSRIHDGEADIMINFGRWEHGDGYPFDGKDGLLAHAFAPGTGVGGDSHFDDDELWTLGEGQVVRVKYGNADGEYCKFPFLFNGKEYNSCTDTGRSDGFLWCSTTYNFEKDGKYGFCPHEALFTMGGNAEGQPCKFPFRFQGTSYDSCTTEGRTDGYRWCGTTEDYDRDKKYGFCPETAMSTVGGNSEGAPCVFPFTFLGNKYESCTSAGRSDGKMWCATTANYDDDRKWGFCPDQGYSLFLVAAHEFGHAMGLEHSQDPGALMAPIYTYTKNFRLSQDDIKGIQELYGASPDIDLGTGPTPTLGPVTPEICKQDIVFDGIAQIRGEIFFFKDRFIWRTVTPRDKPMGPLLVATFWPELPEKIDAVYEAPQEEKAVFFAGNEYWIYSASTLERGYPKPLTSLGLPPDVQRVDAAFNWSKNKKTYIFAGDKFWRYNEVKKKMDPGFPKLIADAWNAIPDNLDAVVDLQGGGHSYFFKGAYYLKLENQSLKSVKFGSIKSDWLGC
Briefly: Assay of 72 KD gelatinase inhibition activity. Conditions: 72KD gelatinase 180 pM, H-150 buffer pH 7.4; read-out: Ki(app). The procedure:
H-150 buffer, pH 7.4, was prepared by CaCl2 H2O (1.47 grams), NaCl (8.77 grams) and N-[2 -hydroxyethyl]piperazine-N'-[2-ethanesulfonic acid](23.83 grams) to distilled and deionized water and then bring the final volume of the solution to 1 liter. An reaction mixture having a final volume of 250 μL was prepared with H-150 buffer, 40 μgrams of Pro-72KD gelatinase (Strongin, et al., J. Biol. Chem. 268:14033 (1993); Goldberg, et al., J. Biol. Chem., 267:4583 (1992); Kleiner, et al., Biochemistry 32:1583 (1993)) and p-aminophenyl mercuric acetate (Sigma Chemical Co., St. Louis, Mo.) (1 mM). The reaction mixture was then incubated for 3 hours at 25° C.
The reaction mixture was applied to a NAP-5 column (G-25 SEPHADEX™, Pharmacia). Fractions containing […] were identified using 12% SDS polyacrylamide gel electrphoresis and concentrated to about 100-200 μliters by centrifigation (5000 g, 15 minutes).
A solution containing H-150 buffer (2.0 mL), 72KD gelatinase (180 pM) and ethylphenolpoly(ethylene-glycolether)n (Boerhringer Mannheim) (1.3 μM) was prepared in a stirred cuvette. Coumarin peptide substrate (2 μL of a 1 mM solution in dimethyl sulfoxide) was added to the reaction mixture. The rate of hydrolysis was determined for about 100-200 seconds by measuring the fluorescence of the reaction at ex328 nanometers and […] using a Hitachi F-2000 Fluorescence Spectrophotometer.
as §1

Chain of human neutrophil collagenase (P22894 101-467): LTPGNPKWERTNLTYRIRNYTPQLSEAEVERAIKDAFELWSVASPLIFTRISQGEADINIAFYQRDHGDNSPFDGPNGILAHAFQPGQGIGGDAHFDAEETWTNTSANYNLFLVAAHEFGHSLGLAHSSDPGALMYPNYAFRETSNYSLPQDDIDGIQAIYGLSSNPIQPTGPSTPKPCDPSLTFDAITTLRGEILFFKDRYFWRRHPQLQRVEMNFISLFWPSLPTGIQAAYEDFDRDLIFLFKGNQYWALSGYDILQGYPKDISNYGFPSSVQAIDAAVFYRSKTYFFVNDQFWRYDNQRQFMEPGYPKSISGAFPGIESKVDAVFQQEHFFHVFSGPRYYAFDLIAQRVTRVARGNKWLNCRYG
Chain of stromelysin (P08254 100-477): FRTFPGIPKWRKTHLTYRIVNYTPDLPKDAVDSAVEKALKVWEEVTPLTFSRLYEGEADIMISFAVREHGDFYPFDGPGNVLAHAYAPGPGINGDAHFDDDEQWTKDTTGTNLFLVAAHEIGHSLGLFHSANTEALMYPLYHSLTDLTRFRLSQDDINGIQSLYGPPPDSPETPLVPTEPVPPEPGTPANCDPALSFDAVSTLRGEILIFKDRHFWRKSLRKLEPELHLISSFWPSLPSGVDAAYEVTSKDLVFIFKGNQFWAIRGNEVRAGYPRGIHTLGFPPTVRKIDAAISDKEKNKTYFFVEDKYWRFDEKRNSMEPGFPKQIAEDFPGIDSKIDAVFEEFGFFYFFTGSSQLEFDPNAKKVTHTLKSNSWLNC
Chain of 92 kD gelatinase (P14780 107-707): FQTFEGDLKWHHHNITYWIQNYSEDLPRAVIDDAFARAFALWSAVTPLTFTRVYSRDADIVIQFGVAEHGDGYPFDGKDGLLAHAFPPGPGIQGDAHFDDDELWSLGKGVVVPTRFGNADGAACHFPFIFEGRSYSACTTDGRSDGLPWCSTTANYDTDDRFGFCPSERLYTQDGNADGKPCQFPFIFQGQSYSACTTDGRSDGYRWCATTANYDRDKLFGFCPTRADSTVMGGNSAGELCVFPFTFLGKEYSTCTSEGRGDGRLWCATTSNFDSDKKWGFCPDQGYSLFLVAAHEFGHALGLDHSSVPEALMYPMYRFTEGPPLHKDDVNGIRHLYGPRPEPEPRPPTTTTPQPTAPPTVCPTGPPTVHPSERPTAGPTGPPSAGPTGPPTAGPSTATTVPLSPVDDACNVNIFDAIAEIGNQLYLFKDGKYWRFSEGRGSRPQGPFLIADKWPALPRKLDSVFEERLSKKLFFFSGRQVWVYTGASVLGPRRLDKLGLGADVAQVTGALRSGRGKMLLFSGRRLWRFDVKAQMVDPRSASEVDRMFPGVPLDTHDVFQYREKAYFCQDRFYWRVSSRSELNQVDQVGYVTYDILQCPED

As for `CC(C)[C@H](NC(=O)[C@H](Cc1c[nH]c2ccccc12)NC(=O)[C@H](Cc1ccccc1)NC(=O)OCc1ccccc1)C(=O)Nc1n[nH]c(=S)s1` [5-(N-benzyloxycarbonyl-phenylalanyl-tryptonyl-valylamino)-1,3,4-thiadiazole-2-thione], the Ki came to 0.36 nM on 92 kD gelatinase, 60 nM at stromelysin, 2.4 nM in assay [1] and 0.71 nM at 72 kD gelatinase.
For `CC(C)[C@H](NC(=O)[C@H](CSCc1ccccc1)NC(=O)OCc1ccccc1)C(=O)Nc1n[nH]c(=S)s1` [5-(N-benzyloxycarbonyl-((S-benzyl)cysteinyl)-valylamino)-1,3,4-thiadiazole-2-thione] the same measures were 2.1 nM, 202 nM, 3.2 nM and 1.1 nM.
In the same order, the values of `CC(C)C(NC(=O)C(Cc1ccc(NC(=O)OCc2ccccc2)cc1)NC(=O)OCc1ccccc1)C(=O)Nc1n[nH]c(=S)s1` (stereo not drawn) [5-(N-benzyloxycarbonyl-((p-benzyloxycarbonylamino)phenyl-alanyl)-valylamino)-1,3,4-thiadiazole-2-thione] are 0.145 nM, 62 nM, 1.17 nM and 0.29 nM.
In the same order, the values of `CSCC[C@H](NC(=O)[C@H](Cc1ccccc1)NC(=O)OCc1ccccc1)C(=O)Nc1n[nH]c(=S)s1` [5-(N-benzyloxycarbonyl-phenylalanyl-methionylamino)-1,3,4-thiadiazole-2-thione] are 3.6 nM, 1120 nM, 7.8 nM and 1.7 nM.
In the case of `CC(C)[C@H](NC(=O)[C@H](Cc1ccccc1)NC(=O)c1ccc(NS(=O)(=O)c2ccc(C(C)(C)C)cc2)cc1)C(=O)Nc1n[nH]c(=S)s1` [5-(N-(4-(4-t-Butylphenylsulfonylamino)benzoyl)-phenylalanyl-valylamino)-1,3,4-thiadiazole-2-thione], the Ki on 92 kD gelatinase was 0.31 nM; on stromelysin, 44 nM; in assay [1], 1.04 nM; at 72 kD gelatinase, 0.68 nM.
For `O=C(N[C@@H](Cc1ccccc1)C(=O)N[C@@H](CCc1ccccc1)C(=O)Nc1n[nH]c(=S)s1)OCc1ccccc1` [5-(N-benzyloxycarbonyl-phenylalanyl-homophenylalanylamino)-1,3,4-thiadiazole-2-thione], the Ki stood at 2.9 nM in assay [1] and 0.95 nM at 72 kD gelatinase.
Turning to `CC(C)C[C@H](NC(=O)[C@H](Cc1ccccc1)NC(=O)OCc1ccccc1)C(=O)N[C@@H](Cc1c[nH]c2ccccc12)C(=O)Nc1n[nH]c(=S)s1` [5-(N-benzyloxycarbonyl-phenylalanyl-leucyl-tryptonylamino)-1,3,4-thiadiazole-2-thione], the Ki at stromelysin is 246 nM; in assay [1] it was 1.45 nM.
`CC(C)(C)OC(=O)N[C@@H](Cc1ccc(OCc2ccccc2)cc1)C(=O)NC(C(=O)Nc1n[nH]c(=S)s1)c1ccccc1` (stereo partly drawn) [5-(N-t-Butoxycarbonyl-(O-benzyl)tyrosyl-phenylglycineamino)-1,3,4-thiadiazole-2-thione]: the values for the Ki (on 92 kD gelatinase; in assay [1]; at 72 kD gelatinase) were 0.245 nM, 0.99 nM and 0.51 nM, respectively.
With `CC(C)C[C@H](NC(=O)[C@H](Cc1ccc(OCc2ccccc2)cc1)NC(=O)OCc1ccccc1)C(=O)Nc1n[nH]c(=S)s1` [5-(N-benzyloxycarbonyl-((O-benzyl)tyrosyl)-leucylamino)-1,3,4-thiadiazole-2-thione], the Ki on 92 kD gelatinase was found to be 0.29 nM; on stromelysin, 96 nM; in assay [1], 1.83 nM; at 72 kD gelatinase, 0.24 nM.
With `CC(C)[C@H](NC(=O)[C@H](Cc1ccccc1)NC(=O)c1ccc(-c2ccccc2)cc1)C(=O)Nc1n[nH]c(=S)s1` [5-(N-(4-phenylbenzoyl)phenylalanyl-valylamino)-1,3,4-thiadiazole-2-thione], the Ki came to 0.31 nM on 92 kD gelatinase, 82 nM on stromelysin, 2.6 nM in assay [1] and 0.8 nM on 72 kD gelatinase.
In the same order, the values of `O=C(CCC(NC(=O)OCc1ccccc1)C(=O)NC(C(=O)Nc1n[nH]c(=S)s1)c1ccccc1)NCCc1ccccc1` (stereo not drawn) [5-(N-benzyloxycarbonyl-(γ-N-2-phenylethyl)glutamylphenylglycylamino)-1,3,4-thiadiazole-2-thione] are 0.17 nM, 57 nM, 0.54 nM and 0.52 nM.
